Values of other authors in patent publication US5529986A, “Conjugate, its preparation and use and a substrate prepared with the conjugate” (priority 1991, dated 1996).

Details: heparin used for standard graphs

For heparin, the “Known specific biological activity” value is given as 180 I.U./mg.
